Legend:
[1] = test system: P. aeruginosa ATCC 27853; test: MIC by broth microdilution; format: cell-based, Pseudomonas aeruginosa; settings: peptidomimetic alone
In short: (§1)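 MICs of peptidomimetics, antibiotics and their combinations were measured by CLSI broth microdilution. Combination ratios came from checkerboard results: peptidomimetic to rifampicin 2:1, to azithromycin 1:4. For potentiation, peptidomimetic was added to preformed antibiotic-gradient panels just before inoculation.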

[2] = test system: E. coli ST131; settings: ST131, 24 h
Protocol: (§2) Minimal inhibitory concentrations (MICs) of peptidomimetics, antibiotics and their combinations were determined by broth microdilution according to the Clinical Laboratory Standards Institute performance standards (Clinical and Laboratory Standards Institute, [2013]). […] Since rifampicin and azithromycin mainly are used to treat infections with Gram-positive pathogens only CLSI clinical breakpoints were available for such bacteria. […] Potentiation of additional antibiotics by peptidomimetics was determined by using commercial 96-well plates containing varied concentrations of standard antibiotics (COMPAN1F; Trek Diagnostic Systems Inc.). The peptidomimetics were added immediately prior to inoculation with pathogen, and then MICs were determined as above. The MICs of peptidomimetic/antibiotic combinations were determined according to the method above, and the concentration ratios were selected based upon checkerboard results with 2:1 and 1:4 ratio of peptidomimetic with rifampicin or azithromycin, respectively. Minimal bactericidal concentrations (MBCs) were determined by using growth-curve assay plates. MIC plates were prepared as above, and then the plates were incubated at 37°C with continuous shaking. Growth was recorded at 10 min intervals as optical density (OD) at 600 nm during 24 h. At 24 h, for wells without growth, a sample was diluted 10-fold in sterile saline (0.9% sodium chloride) and plated onto MHA, following CLSI guidelines (Clinical and Laboratory Standards Institute, [1999]).

[3] = test system: P. aeruginosa ATTC 27853; settings: ATTC 27853, 24 h
Protocol: as §2

[4] = test system: K. pneumoniae ST258; settings: ST258, 24 h
Protocol: as §2

[5] = test system: E. coli ST131; test: MIC by broth microdilution; format: cell-based, Escherichia coli; settings: peptidomimetic alone
In short: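 Checkerboard data set the combination ratios (2:1 with rifampicin, 1:4 with azithromycin, peptidomimetic first). MICs then followed CLSI broth microdilution, and potentiation used commercial antibiotic-gradient plates with peptidomimetic added right before inoculation.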

[6] = test system: K. pneumoniae ST258; test: MIC by broth microdilution; format: cell-based, Klebsiella pneumoniae
In short: as §1

[7] = test system: isolates of E. coli, K. pneumoniae and P. aeruginosa; test: Induction of susceptibility in MDR isolates (summary over all three species); format: cell-based; settings: peptidomimetic 1 at ≤1 μM; 30 of 36 isolates
Text: (§3) Bacterial strains used in this study comprise MDR clinical isolates of E. coli ST131 (Cerquetti et al., [2010]) and K. pneumoniae ST258 (Jana et al., [2017]), and American type culture collection (ATCC) strains: ATCC 25922 (E. coli), ATCC 13883 (K. pneumoniae), and ATCC 27853 (P. aeruginosa). Additional clinical isolates of E. coli, K. pneumoniae, and P. aeruginosa resistant to β-lactams (including carbapenems and cephalosporins) were provided by Laurent Poirel, Université de Fribourg, Switzerland. The following growth media was routinely used for bacterial culturing: Luria-Burtani (LB), cation-adjusted Mueller-Hinton agar (MHA) and broth (MHB II). All assays were performed in cation-adjusted MHA or MHB II. […]
Minimal inhibitory concentrations (MICs) of peptidomimetics, antibiotics and their combinations were determined by broth microdilution according to the Clinical Laboratory Standards Institute performance standards (Clinical and Laboratory Standards Institute, [2013]). […] Potentiation of additional antibiotics by peptidomimetics was determined by using commercial 96-well plates containing varied concentrations of standard antibiotics (COMPAN1F; Trek Diagnostic Systems Inc.). The peptidomimetics were added immediately prior to inoculation with pathogen, and then MICs were determined as above. […] Minimal bactericidal concentrations (MBCs) were determined by using growth-curve assay plates. […]

[8] = MTS/PMS cell viability assay; format: cell-based; settings: human, HepG2 hepatocytes, 1 h exposure, read-out: Cytotoxicity HepG2 EC50 ± SD
In short: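 NIH 3T3 and HepG2 cells at 80–90% confluence exposed 1 h to compound in serum-free medium, then MTS/PMS added for 1 h at 37 °C; absorbance read at 492 nm. Viability normalized to medium (0% death) and 0.2% SDS (100% death); EC50 from Hill fit constrained 0–100%, technical triplicates.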

[9] = test system: E. coli clinical isolates and reference strains; test: MIC of fixed-ratio peptidomimetic 1-antibiotic combinations in clinical isolates and reference strains; format: cell-based, Escherichia coli; settings: with rifampicin or azithromycin
Text: as §3, with “II. Antibiotics were purchased from Sigma-Aldrich and the peptidomimetic collection (Table S1) was curated and provided by Henrik Franzyk.” for “II.”
Minimal inhibitory concentrations (MICs) of peptidomimetics, antibiotics and their combinations were determined by broth microdilution according to the Clinical Laboratory Standards Institute performance standards (Clinical and Laboratory Standards Institute, [2013]). […] Potentiation of additional antibiotics by peptidomimetics was determined by using commercial 96-well plates containing varied concentrations of standard antibiotics (COMPAN1F; Trek Diagnostic Systems Inc.). The peptidomimetics were added immediately prior to inoculation with pathogen, and then MICs were determined as above. The MICs of peptidomimetic/antibiotic combinations were determined according to the method above, and the concentration ratios were selected based upon checkerboard results with 2:1 and 1:4 ratio of peptidomimetic with rifampicin or azithromycin, respectively. Minimal bactericidal concentrations (MBCs) were determined by using growth-curve assay plates. […] Growth was recorded at 10 min intervals as optical density (OD) at 600 nm during 24 h. […]

NCCCC[C@H](NC(=O)CCN(Cc1ccccc1)C(=O)[C@H](CCCCN)NC(=O)CCN(Cc1ccccc1)C(=O)[C@H](CCCCN)NC(=O)CCN(Cc1ccccc1)C(=O)[C@H](CCCCN)NC(=O)CCN(Cc1ccccc1)C(=O)[C@H](CCCCN)NC(=O)CCN(Cc1ccccc1)C(=O)[C@H](CCCCN)NC(=O)CCN(Cc1ccccc1)C(=O)[C@H](CCCCN)NC(=O)CCN(Cc1ccccc1)C(=O)[C@@H](N)CCCCN)C(=O)N(CCC(N)=O)Cc1ccccc1 [Peptidomimetic 1, H-(Lys-βNPhe)8-NH2]
MIC P. aeruginosa ATCC 27853 [1]: 1 µM | MBC (peptidomimetic alone) [2]: 1 µM | MIC (peptidomimetic alone) [2]: 1 µM | MBC (peptidomimetic alone) [3]: 2 µM | MIC (peptidomimetic alone) [3]: 1 µM | MBC (peptidomimetic alone) [4]: 16 to 32 µM | MIC (peptidomimetic alone) [4]: 8 µM | MIC E. coli ST131 [5]: 2 µM | Selectivity Index (SI) K. pneumoniae ST258 ([6]; average of EC50 (HepG2, NIH 3T3) divided by MIC): (10) | MIC K. pneumoniae ST258 ([6]; peptidomimetic alone): 16 µM | Isolates in which susceptibility to rifampicin and azithromycin was induced [7]: 83% | EC50 at 1 h [8]: 124 ± 0.81 µM | Peptidomimetic concentration in combination, most E. coli isolates [9]: 0.5 to 1 µM
